Values of other authors as cited in US9193713B2, “Compounds as cannabinoid receptor ligands” (priority 2007, dated 2015).

Legend:
[1] = tested on: rodent; settings: neuropathic, incisional, chronic and acute inflammatory pain
[2] = tested on: microglial; settings: in vitro; effects blocked by SR144528
[3] = tested on: mice; settings: model for post-menopausal osteoporosis
[4] = tested on: osteoclast
[5] = tested on: animal models; settings: acute thermal, persistent, inflammatory and neuropathic pain models
[6] = tested on: apolipoprotein E knockout mice; settings: low doses; effects inhibited by SR144528
[7] = tested on: rat; settings: rat formalin model of persistent pain

**Q.** For `COc1ccc2c(c1)c(CCN1CCOCC1)c(C)n2C(=O)c1cccc(Cl)c1Cl` [GW405833], which “efficacy in pain models” value [1] is on record?
**A.** The value was “efficacious”.

**Q.** For `CCCC(C)(C)c1ccc2c(c1)OC(C)(C)[C@@H]1CC=C(C)C[C@@H]21` [JWH-133], which “effect on β-amyloid-induced microglial activation and neurotoxicity” value [2] is on record?
**A.** Its value is “abrogated β-amyloid-induced microglial activation and neurotoxicity”.

**Q.** With SR144528 as the compound, how does the “effect on ovariectomy-induced bone loss” value [3] read?
**A.** The value was “reverse ovariectomy-induced bone loss”.

**Q.** What about the “effect on osteoclast activity” value [4] of the same compound?
**A.** Its value is “inhibit osteoclast activity”.

**Q.** With `CN1CCCCC1Cn1cc(C(=O)c2cc([N+](=O)[O-])ccc2I)c2ccccc21` (stereo not shown) [AM-1241] as the compound, how does the analgesic efficacy [5] read?
**A.** The analgesic efficacy was “robust analgesic efficacy”.

**Q.** For (−)-Δ^9-Tetrahydrocannabinol [THC], which “effect on progression of atherosclerotic lesions” value [6] is on record?
**A.** Its value is “slowed the progression of atherosclerotic lesions”.

**Q.** Which antinociceptive response [7] does the source give for `CCCCCCC(C)(C)c1cc(OC)c([C@@H]2C=C(CO)[C@@H]3C[C@H]2C3(C)C)c(OC)c1` [HU-308] here?
**A.** The antinociceptive response was “elicits an antinociceptive response”.
